Experimental data from article PMC10220883, “Relating Molecular Dynamics Simulations to Functional Activity for Gly-Rich Membranolytic Helical Kiadin Peptides” (Pharmaceutics, 2023).
No end group written: not given here.

Experiments:
[1] = test system: Escherichia coli ATCC 25922; parameters: method as in PMID 29553266; conditions: cited from earlier work; for E. coli MIC: microdilution, Mueller–Hinton broth, 5 × 10^5 CFU/mL, overnight 37 °C, no visual growth; for E. coli MBC: no visible growth on MH agar after 18 h at 37 °C of aliquots from MIC, 2 × MIC, 4 × MIC wells
[2] = test system: human red blood cells (RBC); conditions: cited from earlier work; for HC50 (haemolytic activity, text): 0.5% human erythrocytes in PBS
[3] = test system: Staphylococcus aureus ATCC 25923; parameters: method as in PMID 29553266; conditions: cited from earlier work; for S. aureus MIC: microdilution, Mueller–Hinton broth, 5 × 10^5 CFU/mL, overnight 37 °C, no visual growth; for S. aureus MBC: no visible growth on MH agar after 18 h at 37 °C of aliquots from MIC, 2 × MIC, 4 × MIC wells
[4] = test system: MEC-1 chronic lymphocytic leukaemia cell line; experiment: MTT cytotoxicity assay; type: cell-based, human; parameters: Cytotoxicity MEC-1 (qualitative score): key to the marks not given beside the values; conditions: for IC50 MEC-1 cells: tested range 5 to 50 µM
Method: Cytotoxicity was also assessed on a human lymphocytic cell line by using the 3-(4,5-dimethylthiazol-2-yl)-2,5-diphenyl tetrazolium bromide (MTT) assay. The MEC-1 chronic lymphocytic leukaemia cell line was kindly provided by Prof. P. Macor (Department of Life Sciences, University of Trieste, IT). MEC-1 cells were cultured in RPMI 1640 complete medium supplemented with 2 mM L-glutamine, 100 U/mL penicillin, 100 µg/mL streptomycin and 10% foetal bovine serum (FBS) and were subcultured two/three times a week for not more than 20 passages. The colorimetric MTT assay was performed to assess the metabolic activity of cells plated onto 96-well culture plates (10^5 cells/well, V^f = 100 µL) that had been exposed to 5 to 50 µM kiadins for 24 h. Twenty microlitres of a stock MTT solution (5 mg/mL) were added to each well after 20 h and left to incubate for the remaining 4 h. The converted MTT dye was then solubilized with acidic isopropanol (0.04 N HCl in absolute isopropanol). Absorbance was measured at 540 and 630 nm using an automated microplate reader (EL311, BIO-TEK® Instruments, Charlotte, VT, USA). All measurements were carried out at least in triplicate. An IC50 value was estimated as the concentration of peptide causing a 50% decrease in viability, calculated using GraphPad Prism software.

[5] = test system: human red blood cells (RBC); experiment: Haemolytic activity assay; type: cell-based; parameters: key to the marks not given beside the values
Method: Haemolytic activity was previously reported by Roncevic et al. and was evaluated by incubating 0.5% erythrocytes provided by an informed healthy donor with serially diluted peptides in 96-well microtiter plates. Haemoglobin release was monitored at 450 nm. Triton-X was used as a positive control, and the incubation of red blood cells in PBS without peptides was the negative control. A HC50 value was calculated as the concentration causing 50% haemolysis.

[6] = Surface plasmon resonance binding to immobilized liposomes; conditions: SPR, L1 chip with DOPC LUVs, PBS, 0.5 to 16 μM peptide, affinity-steady state model; estimated; repeated three times; read-out: KD (equilibrium dissociation constant)
Method: Large unilamellar vesicles (LUVs) were prepared as described by Morgera et al.. Briefly, dry 1,2-dioleoyl-sn-glycero-3-phosphocholine (DOPC) or phosphatidylglycerol:diphosphatidylglycerol (DPPG) was dissolved in chloroform/methanol (2:1) solution, then evaporated using a dry nitrogen stream and vacuum-dried for 24 h. The liposome cake was resuspended in 1 mL of sodium phosphate buffer (SPB) to a concentration of 5 mM phospholipid and spun for 1 h at 40 °C. The vesicles were then subjected to several freeze–thaw cycles before passing through a mini-extruder (Avanti Polar Lipids, Alabaster, AL, USA) with successive polycarbonate filters having 1, 0.4 and 0.1 μm pores before resuspending to a final phospholipid concentration of 0.4 mM. By calculating the surface area of a ∼100 nm liposome and taking into account the average area of a phospholipid headgroup (∼0.7 nm^2) (similar to the value determined in MD simulations), the concentration of the liposomes was estimated to be about 5 nM.
Peptide–membrane interactions were studied using an X-100 instrument (Biacore, GE Lifesciences). LUVs were prepared using DOPC as described above. The extruded unilamellar LUVs were then diluted to result in ~1 mM phospholipid in PBS. The L1 sensor chip was preconditioned and loaded with the LUVs, as described previously. […]

Substance	E. coli MIC [1]	E. coli MBC [1]	HC50 (haemolytic activity, text) [2]	S. aureus MIC [3]	S. aureus MBC [3]	MEC-1 IC50 (concentration causing 50% decrease in viability) ([4]; MTT, 10^5 cells/well, 5 to 50 µM peptide, 24 h, RPMI 1640 with 10% FBS, at least triplicate)	IC50 MEC-1 cells ([4]; MTT, 24 h)	Cytotoxicity RBC (qualitative score) [5]	Cytotoxicity MEC-1 (qualitative score) [4]	Haemolytic activity (in words) ([2]; 0.5% human erythrocytes, up to highest tested concentration)	Kd [6]
H-KIAKGALKALKIAKGALKAL-NH2 [kiadin-3]	4 mM	16 mM	about 95 μM	16 to 32 mM	32 mM	>50 µM	> 50 µM				
H-KIAKVALKALKIAKGALKAL-NH2 [kiadin-1]	0.75 mM	0.75 mM		0.5 to 1 mM	1.5 mM			+++	+++		
H-KIALKALKALKALGKALKAL-NH2 [kiadin-6]	1 to 2 mM	2 to 4 mM		4 mM	4 mM						
H-KIGKALGKALKALGKALGKA-NH2 [kiadin-4]	8 mM	16 mM		16 to 32 mM	32 mM						
KIAGKAGKIAKIAGKAGKIA-NH2 [kiadin-5, ab initio designed 20-residue amidated peptide with quadruple Gly substitution]	>64 mM	>64 mM		>64 mM	>64 mM					not to be haemolytic up to the highest tested concentration	
KIAKGALKALKIAKVALKAL-NH2 [kiadin-2]	0.25 to 0.5 mM	0.5 to 1 mM		8 to 16 mM	8 to 16 mM			++	++		
KIAKVALKALKIAKVALKAL-NH2 [diPGLa-H]	1.5 mM	1.5 mM	about 22 μM	0.75 mM	1.5 mM		9 ± 3 µM				~5 µM
